Test results: patent EP0007672A1, “Isocyanoalkenes, process and useful intermediates for their preparation, pharmaceutical and fungicidal preparations containing those isocyanoalkenes and the use of the fungicidal preparations in agriculture” (GIST-BROCADES N.V., priority 1978, dated 1980)
Converted amounts (≈) assume the structure as drawn. Where two headings read alike, the source gives them in different places.

What was measured:
Experiment in all cases: MIC (Minimum Inhibitory Concentration)
Type in all cases: cell-based
[1] = system: Trichophyton quickeaneum; details: read-out: MIC values
Excerpt: (§1) In addition they may be used for combatting plant diseases, in particular as fungicides. A list of MIC (Minimum Inhibitory Concentration) values for a number of microorganisms is listed herebelow. The figures in the column headings refer to the compounds prepared according to the experimental examples in comparison with the spectrum of 1-[2-(2,4-dichlorophenyl)-2-{(2,4-dichlorophenyl)-methoxy} -ethyl7-1H-imidazole (better known under the name of miconazole, c.f. Merck Index 9th Ed. page 6047) or natamycin (pimaricin, c.f. Merck Index 9th Ed. page 7233).

[2] = system: Pasteurella multocida; details: read-out: MIC values
Excerpt: as §1

[3] = system: Streptococcus haemolyticus; details: read-out: MIC values
Excerpt: as §1

[4] = system: Candida albicans
Excerpt: as §1

[5] = system: Trichophyton violoceum; details: read-out: MIC values
Excerpt: as §1

[6] = system: Trichophyton equinum
Excerpt: as §1

[7] = system: Trichophyton rubrum
Excerpt: as §1

[8] = system: Trichophyton schoenleinii; details: read-out: MIC values
Excerpt: as §1

[9] = system: Trichophyton mentagrophytus
Excerpt: as §1

[10] = system: Trichophyton tonsurans; details: Trichophyton tonsurans 561-50; read-out: MIC values
Excerpt: as §1

[11] = system: Trichophyton verrucosum
Excerpt: as §1

[12] = Trichophyton quickeaneum A 2040
[13] = Streptococcus haemolyticus A 1088
[14] = Candida albicans A 7, read-out: MIC values
[15] = Candida albicans A 3140, read-out: MIC values
[16] = Candida albicans A 3141, read-out: MIC values
[17] = Candida albicans A 3142, read-out: MIC values
[18] = Candida albicans A 3143, read-out: MIC values
[19] = Candida albicans A 3144, read-out: MIC values
[20] = Candida albicans A 3145, read-out: MIC values
[21] = Candida albicans A 3165, read-out: MIC values
[22] = Candida albicans A 3166, read-out: MIC values
[23] = Candida albicans A 3167, read-out: MIC values
[24] = Candida albicans A 3168, read-out: MIC values
[25] = Candida albicans A 3169, read-out: MIC values
[26] = Candida albicans A 3171, read-out: MIC values
[27] = Candida albicans A 3184, read-out: MIC values
[28] = Candida albicans A 3190, read-out: MIC values
[29] = Candida albicans A 3191, read-out: MIC values
[30] = Candida albicans A 3192, read-out: MIC values
[31] = Candida albicans A 3194, read-out: MIC values
[32] = Candida albicans A 3196, read-out: MIC values
[33] = Trichophyton equinum 182-76, read-out: MIC values
[34] = Trichophyton equinum 856-71, read-out: MIC values
[35] = Trichophyton rubrum 218-65, read-out: MIC values
[36] = Trichophyton rubrum 494-62, read-out: MIC values
[37] = Trichophyton rubrum A 810, read-out: MIC values
[38] = Trichophyton schoenleinii 435-63
[39] = Trichophyton mentagrophytus 367-68, read-out: MIC values
[40] = Trichophyton mentagrophytus 421-67, read-out: MIC values
[41] = Trichophyton mentagrophytus A 3252, read-out: MIC values
[42] = Trichophyton mentagrophytus R 177, read-out: MIC values
[43] = Trichophyton mentagrophytus R 178, read-out: MIC values
[44] = Trichophyton mentagrophytus RRL 305, read-out: MIC values

Question: With `[C-]#[N+]C(=C(C)c1ccccc1)S(=O)(=O)c1ccc(C)cc1` [Example 12, 2-phenyl-1-isocyano-1-(4-toluenesulphonyl)-1-propene] as the compound, how does the MIC [1, 12] read?
Answer: 6 µg/mL (≈ 20.2 µM)

Question: And the MIC ([2]; Pasteurella multocida A 723)?
Answer: 3 µg/mL (≈ 10.1 µM)

Question: And the MIC [3, 13]?
Answer: 50 µg/mL (≈ 168 µM)

Question: And the MIC [4, 14]?
Answer: 3 µg/mL (≈ 10.1 µM)

Question: What about the MIC [4, 15] of the same compound?
Answer: 6 µg/mL (≈ 20.2 µM)

Question: What about the MIC [4, 16] of the same compound?
Answer: 6 µg/mL (≈ 20.2 µM)

Question: And the MIC [4, 17]?
Answer: 6 µg/mL (≈ 20.2 µM)

Question: And the MIC [4, 18]?
Answer: 6 µg/mL (≈ 20.2 µM)

Question: What about the MIC [4, 19] of the same compound?
Answer: 3 µg/mL (≈ 10.1 µM)

Question: What about the MIC [4, 20] of the same compound?
Answer: 3 µg/mL (≈ 10.1 µM)

Question: What about the MIC [4, 21] of the same compound?
Answer: 3 µg/mL (≈ 10.1 µM)

Question: And the MIC [4, 22]?
Answer: 3 µg/mL (≈ 10.1 µM)

Question: And the MIC [4, 23]?
Answer: 3 µg/mL (≈ 10.1 µM)

Question: What about the MIC [4, 24] of the same compound?
Answer: 6 µg/mL (≈ 20.2 µM)

Question: What about the MIC [4, 25] of the same compound?
Answer: 6 µg/mL (≈ 20.2 µM)

Question: And the MIC [4, 26]?
Answer: 6 µg/mL (≈ 20.2 µM)

Question: What about the MIC [4, 27] of the same compound?
Answer: 6 µg/mL (≈ 20.2 µM)

Question: And the MIC [4, 28]?
Answer: 6 µg/mL (≈ 20.2 µM)

Question: And the MIC [4, 29]?
Answer: 6 µg/mL (≈ 20.2 µM)

Question: And the MIC [4, 30]?
Answer: 3 µg/mL (≈ 10.1 µM)

Question: And the MIC [4, 31]?
Answer: 3 µg/mL (≈ 10.1 µM)

Question: And the MIC [4, 32]?
Answer: 6 µg/mL (≈ 20.2 µM)

Question: And the MIC ([5]; Trichophyton violoceum 442-62)?
Answer: 3 µg/mL (≈ 10.1 µM)

Question: And the MIC [6, 33]?
Answer: 12.5 µg/mL (≈ 42 µM)

Question: What about the MIC [6, 34] of the same compound?
Answer: 6 µg/mL (≈ 20.2 µM)

Question: And the MIC [7, 35]?
Answer: 3 µg/mL (≈ 10.1 µM)

Question: And the MIC [7, 36]?
Answer: 6 µg/mL (≈ 20.2 µM)

Question: And the MIC [7, 37]?
Answer: 3 µg/mL (≈ 10.1 µM)

Question: What about the MIC [8, 38] of the same compound?
Answer: 1.5 µg/mL (≈ 5.04 µM)

Question: What about the MIC [9, 39] of the same compound?
Answer: 12.5 µg/mL (≈ 42 µM)

Question: What about the MIC [9, 40] of the same compound?
Answer: 6 µg/mL (≈ 20.2 µM)

Question: What about the MIC [9, 41] of the same compound?
Answer: 6 µg/mL (≈ 20.2 µM)

Question: What about the MIC [9, 42] of the same compound?
Answer: 3 µg/mL (≈ 10.1 µM)

Question: What about the MIC [9, 43] of the same compound?
Answer: 6 µg/mL (≈ 20.2 µM)

Question: What about the MIC [9, 44] of the same compound?
Answer: 25 µg/mL (≈ 84.1 µM)

Question: And the MIC [10]?
Answer: 0.1 µg/mL (≈ 0.336 µM)

Question: Which results are given for `[C-]#[N+]C(C1=CCCCCC1)S(=O)(=O)c1ccc(C)cc1` (stereo not shown) [Example 18b, a-(cyclohepten-1-yl)-a-(4-toluenesulphonyl)-methylisocyanide]?
Answer: MIC ([1]; Trichophyton): 25 µg/mL (≈ 86.4 µM); MIC ([2]; Pasteurella multocida): 50 µg/mL (≈ 173 µM); MIC ([3]; Streptococcus): 25 µg/mL (≈ 86.4 µM); MIC ([4]; read-out: MIC values, Candida albicans A 7): 6 µg/mL (≈ 20.7 µM); MIC ([4]; read-out: MIC values, Candida albicans A 3140): 6 µg/mL (≈ 20.7 µM); MIC ([4]; read-out: MIC values, Candida albicans A 3141): 12.5 µg/mL (≈ 43.2 µM); MIC ([4]; read-out: MIC values, Candida albicans A 3142): 12.5 µg/mL (≈ 43.2 µM); MIC ([4]; read-out: MIC values, Candida albicans A 3143): 12.5 µg/mL (≈ 43.2 µM); MIC ([4]; read-out: MIC values, Candida albicans A 3144): 12.5 µg/mL (≈ 43.2 µM); MIC ([4]; read-out: MIC values, Candida albicans A 3145): 6 µg/mL (≈ 20.7 µM); MIC ([4]; read-out: MIC values, Candida albicans A 3165): 12.5 µg/mL (≈ 43.2 µM); MIC ([4]; read-out: MIC values, Candida albicans A 3166): 12.5 µg/mL (≈ 43.2 µM); MIC ([4]; read-out: MIC values, Candida albicans A 3167): 12.5 µg/mL (≈ 43.2 µM); MIC ([4]; read-out: MIC values, Candida albicans A 3168): 6 µg/mL (≈ 20.7 µM); MIC ([4]; read-out: MIC values, Candida albicans A 3169): 12.5 µg/mL (≈ 43.2 µM); MIC ([4]; read-out: MIC values, Candida albicans A 3171): 12.5 µg/mL (≈ 43.2 µM); MIC ([4]; read-out: MIC values, Candida albicans A 3184): 12.5 µg/mL (≈ 43.2 µM); MIC ([4]; read-out: MIC values, Candida albicans A 3190): 12.5 µg/mL (≈ 43.2 µM); MIC ([4]; read-out: MIC values, Candida albicans A 3191): 12.5 µg/mL (≈ 43.2 µM); MIC ([4]; read-out: MIC values, Candida albicans A 3192): 12.5 µg/mL (≈ 43.2 µM); MIC ([4]; read-out: MIC values, Candida albicans A 3194): 25 µg/mL (≈ 86.4 µM); MIC ([4]; read-out: MIC values, Candida albicans A 3196): 12.5 µg/mL (≈ 43.2 µM); MIC ([5]; Trichophyton): 6 µg/mL (≈ 20.7 µM); MIC ([6]; read-out: MIC values, Trichophyton equinum 182-76): > 100 µg/mL; MIC ([6]; read-out: MIC values, Trichophyton equinum 441-51): < 0.05 µg/mL; MIC ([6]; read-out: MIC values, Trichophyton equinum 856-71): 100 µg/mL (≈ 346 µM); MIC ([11]; read-out: MIC values, Trichophyton verrucosum 134-66): 3 µg/mL (≈ 10.4 µM); MIC ([11]; read-out: MIC values, Trichophyton verrucosum A 2922): 12.5 µg/mL (≈ 43.2 µM); MIC ([7]; read-out: MIC values, Trichophyton rubrum 218-65): 100 µg/mL (≈ 346 µM); MIC ([7]; read-out: MIC values, Trichophyton rubrum 494-62): > 100 µg/mL; MIC ([8]; Trichophyton schoenleinii): 6 µg/mL (≈ 20.7 µM); MIC ([9]; read-out: MIC values, Trichophyton mentagrophytus 367-68): 25 µg/mL (≈ 86.4 µM); MIC ([9]; read-out: MIC values, Trichophyton mentagrophytus 421-67): > 100 µg/mL; MIC ([9]; read-out: MIC values, Trichophyton mentagrophytus A 3252): > 100 µg/mL; MIC ([9]; read-out: MIC values, Trichophyton mentagrophytus R 177): > 100 µg/mL; MIC ([9]; read-out: MIC values, Trichophyton mentagrophytus R 178): > 100 µg/mL; MIC ([9]; read-out: MIC values, Trichophyton mentagrophytus RRL 305): > 100 µg/mL

Question: What does the source list for `[C-]#[N+]C(=C(CCCCC)CCCCC)S(=O)(=O)c1ccc(C)cc1` [Example 26, 1-isocyana-2-pentyl-1-(4-toluenesulphonyl)-1-heptene]?
Answer: MIC [1, 12]: > 100 µg/mL; MIC ([2]; Pasteurella multocida A 723): 100 µg/mL (≈ 288 µM); MIC [3, 13]: > 100 µg/mL; MIC [4, 14]: 50 µg/mL (≈ 144 µM); MIC [4, 15]: 6 µg/mL (≈ 17.3 µM); MIC [4, 16]: 25 µg/mL (≈ 71.9 µM); MIC [4, 17]: 25 µg/mL (≈ 71.9 µM); MIC [4, 18]: 50 µg/mL (≈ 144 µM); MIC [4, 19]: 100 µg/mL (≈ 288 µM); MIC [4, 20]: 25 µg/mL (≈ 71.9 µM); MIC [4, 21]: 50 µg/mL (≈ 144 µM); MIC [4, 22]: 25 µg/mL (≈ 71.9 µM); MIC [4, 23]: > 100 µg/mL; MIC [4, 24]: 100 µg/mL (≈ 288 µM); MIC [4, 25]: 25 µg/mL (≈ 71.9 µM); MIC [4, 26]: 50 µg/mL (≈ 144 µM); MIC [4, 27]: 50 µg/mL (≈ 144 µM); MIC [4, 28]: 50 µg/mL (≈ 144 µM); MIC [4, 29]: > 100 µg/mL; MIC [4, 30]: 50 µg/mL (≈ 144 µM); MIC [4, 31]: 50 µg/mL (≈ 144 µM); MIC [4, 32]: 50 µg/mL (≈ 144 µM); MIC ([5]; Trichophyton violoceum 442-62): 100 µg/mL (≈ 288 µM); MIC [6, 33]: > 100 µg/mL; MIC [6, 34]: 50 µg/mL (≈ 144 µM); MIC [7, 35]: 100 µg/mL (≈ 288 µM); MIC [7, 36]: 100 µg/mL (≈ 288 µM); MIC [7, 37]: 50 µg/mL (≈ 144 µM); MIC [8, 38]: 100 µg/mL (≈ 288 µM); MIC [9, 39]: > 100 µg/mL; MIC [9, 40]: 100 µg/mL (≈ 288 µM); MIC [9, 41]: > 100 µg/mL; MIC [9, 42]: > 100 µg/mL; MIC [9, 43]: > 100 µg/mL; MIC [9, 44]: > 100 µg/mL; MIC [10]: 100 µg/mL (≈ 288 µM)
